Test results taken from US10815230B2, “Casein kinase 1 delta inhibitor” (ELECTROPHORETICS LIMITED, priority 2015, dated 2020).

Assays:
Test in all cases: KINOMEscan binding assay
Settings in all cases: read-out: % Ctrl @ 10000 nM
LIMK2 = LIMK2 (Homo sapiens, UniProt P53671)
MEK4 = MEK4 (Homo sapiens, UniProt P45985)
CAMKK2 = CAMKK2 (Homo sapiens, UniProt Q96RR4)
TYRO3 = biological target: T1, TYRO3 (Homo sapiens, UniProt Q06418)
T1 construct: purchased DiscoveRx (KINOMEscan, LeadHunter Discovery services)

PAK2 = PAK2 (Homo sapiens, UniProt Q13177)
PIK4CB = PIK4CB (Homo sapiens, UniProt Q9UBF8)
BRSK2 = BRSK2 (Homo sapiens, UniProt Q8IWQ3)
PAK6 = PAK6 (Homo sapiens, UniProt Q9NQU5)
TAK1 = TAK1 (Homo sapiens, UniProt O43318)
CDK11 = CDK11 (Homo sapiens, UniProt Q9BWU1)
EPHB3 = EPHB3 (Homo sapiens, UniProt P54753)
PAK4 = PAK4 (Homo sapiens, UniProt O96013)
LATS2 = LATS2 (Homo sapiens, UniProt Q9NRM7)
CHEK2 = CHEK2 (Homo sapiens, UniProt O96017)
PDGFRA = PDGFRA (Homo sapiens, UniProt P16234)
SLK = SLK (Homo sapiens, UniProt Q9H2G2)
CSNK1D = CSNK1D (Homo sapiens, UniProt P48730)
AMPK-alpha2 = AMPK-alpha2 (Homo sapiens, UniProt P54646)
KIT (V559D) = KIT (V559D) (Homo sapiens, UniProt P10721, V559D)
EPHA6 = EPHA6 (Homo sapiens, UniProt Q9UF33)
LRRK2 (G2019S) = biological target: T2, LRRK2 (G2019S) (Homo sapiens, UniProt Q5S007, G2019S)
T2 construct: T7 phage fusion (most assays) or DNA label after HEK293 expression; purchased DiscoveRx (KINOMEscan, LeadHunter Discovery services); host or cells: T7 phage in E. coli (BL21-derived) or HEK293

CDK4-cyclinD3 = CDK4-cyclinD3 (Homo sapiens, UniProt P11802)
NEK1 = NEK1 (Homo sapiens, UniProt Q96PY6)
[1] = biological target: RSK2 Kin.Dom.2-C-terminal (Homo sapiens, UniProt P51812)
TNK1 = TNK1 (Homo sapiens, UniProt Q13470)
DRAK1 = DRAK1 (Homo sapiens, UniProt Q9UEE5)
PYK2 = PYK2 (Homo sapiens, UniProt Q14289)
MARK2 = MARK2 (Homo sapiens, UniProt Q7KZI7)
CAMKK1 = CAMKK1 (Homo sapiens, UniProt Q8N5S9)
PIK3CA (H1047Y) = PIK3CA (H1047Y) (Homo sapiens, UniProt P42336, H1047Y)
TXK = TXK (Homo sapiens, UniProt P42681)
MELK = MELK (Homo sapiens, UniProt Q14680)
CSNK1E = CSNK1E (Homo sapiens, UniProt P49674)
RET (V804M) = RET (V804M) (Homo sapiens, UniProt P07949, V804M)
STK33 = STK33 (Homo sapiens, UniProt Q9BYT3)
PRKD3 = PRKD3 (Homo sapiens, UniProt O94806)
PIK3CG = PIK3CG (Homo sapiens, UniProt P48736)
PRKR = PRKR (Homo sapiens, UniProt P19525)
MAP3K2 = MAP3K2 (Homo sapiens, UniProt Q9Y2U5)
PRKCD = PRKCD (Homo sapiens, UniProt Q05655)
IKK-alpha = IKK-alpha (Homo sapiens, UniProt O15111)

MARK2, sequence (Q7KZI7 whole entry): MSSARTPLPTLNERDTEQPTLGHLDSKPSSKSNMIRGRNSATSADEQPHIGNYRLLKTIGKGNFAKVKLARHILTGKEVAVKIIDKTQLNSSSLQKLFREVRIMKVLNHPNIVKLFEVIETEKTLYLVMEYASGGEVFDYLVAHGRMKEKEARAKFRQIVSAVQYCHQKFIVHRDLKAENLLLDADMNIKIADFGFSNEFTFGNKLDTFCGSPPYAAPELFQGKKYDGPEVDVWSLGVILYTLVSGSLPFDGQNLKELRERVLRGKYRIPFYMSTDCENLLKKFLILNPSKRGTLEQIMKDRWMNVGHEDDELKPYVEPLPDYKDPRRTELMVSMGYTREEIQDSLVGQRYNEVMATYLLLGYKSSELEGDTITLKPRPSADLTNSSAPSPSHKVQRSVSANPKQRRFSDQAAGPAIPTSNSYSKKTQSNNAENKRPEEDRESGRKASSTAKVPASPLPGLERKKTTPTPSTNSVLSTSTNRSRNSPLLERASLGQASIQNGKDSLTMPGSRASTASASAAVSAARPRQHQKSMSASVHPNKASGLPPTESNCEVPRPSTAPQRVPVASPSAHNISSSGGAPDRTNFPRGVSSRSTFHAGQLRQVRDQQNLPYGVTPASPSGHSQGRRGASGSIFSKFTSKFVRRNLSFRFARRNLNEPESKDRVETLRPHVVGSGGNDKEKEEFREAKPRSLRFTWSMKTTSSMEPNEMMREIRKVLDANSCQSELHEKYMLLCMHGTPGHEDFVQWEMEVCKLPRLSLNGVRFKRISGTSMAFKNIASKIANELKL
PDGFRA, sequence (P16234 24-1089): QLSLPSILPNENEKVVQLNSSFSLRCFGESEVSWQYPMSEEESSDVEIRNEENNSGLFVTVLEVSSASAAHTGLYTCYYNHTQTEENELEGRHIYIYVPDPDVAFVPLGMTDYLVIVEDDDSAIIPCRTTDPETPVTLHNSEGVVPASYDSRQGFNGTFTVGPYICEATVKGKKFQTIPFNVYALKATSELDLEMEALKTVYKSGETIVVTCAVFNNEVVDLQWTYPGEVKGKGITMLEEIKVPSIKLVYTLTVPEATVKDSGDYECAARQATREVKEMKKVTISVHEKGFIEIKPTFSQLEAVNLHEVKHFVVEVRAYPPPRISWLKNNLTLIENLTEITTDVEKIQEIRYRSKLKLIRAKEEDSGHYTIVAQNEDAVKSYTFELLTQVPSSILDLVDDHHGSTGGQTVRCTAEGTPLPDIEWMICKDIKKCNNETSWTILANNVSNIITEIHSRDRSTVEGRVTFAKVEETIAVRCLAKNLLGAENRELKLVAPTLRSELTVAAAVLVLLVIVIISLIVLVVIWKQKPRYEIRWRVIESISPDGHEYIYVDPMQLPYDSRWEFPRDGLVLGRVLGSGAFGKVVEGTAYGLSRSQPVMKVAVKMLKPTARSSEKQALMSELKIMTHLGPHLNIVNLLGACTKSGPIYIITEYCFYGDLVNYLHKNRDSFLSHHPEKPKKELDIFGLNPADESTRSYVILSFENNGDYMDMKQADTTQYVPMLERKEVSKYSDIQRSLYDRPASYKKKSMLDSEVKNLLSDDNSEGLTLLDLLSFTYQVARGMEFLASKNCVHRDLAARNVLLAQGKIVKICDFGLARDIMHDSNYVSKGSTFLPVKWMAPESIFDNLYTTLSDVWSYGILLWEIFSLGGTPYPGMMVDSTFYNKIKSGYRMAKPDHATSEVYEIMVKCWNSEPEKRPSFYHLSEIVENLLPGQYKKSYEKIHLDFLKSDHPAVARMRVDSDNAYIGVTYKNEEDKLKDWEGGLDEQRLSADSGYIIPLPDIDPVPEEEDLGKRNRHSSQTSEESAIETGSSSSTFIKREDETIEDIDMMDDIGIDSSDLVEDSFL
KIT (V559D), sequence (P10721 26-976 V559D): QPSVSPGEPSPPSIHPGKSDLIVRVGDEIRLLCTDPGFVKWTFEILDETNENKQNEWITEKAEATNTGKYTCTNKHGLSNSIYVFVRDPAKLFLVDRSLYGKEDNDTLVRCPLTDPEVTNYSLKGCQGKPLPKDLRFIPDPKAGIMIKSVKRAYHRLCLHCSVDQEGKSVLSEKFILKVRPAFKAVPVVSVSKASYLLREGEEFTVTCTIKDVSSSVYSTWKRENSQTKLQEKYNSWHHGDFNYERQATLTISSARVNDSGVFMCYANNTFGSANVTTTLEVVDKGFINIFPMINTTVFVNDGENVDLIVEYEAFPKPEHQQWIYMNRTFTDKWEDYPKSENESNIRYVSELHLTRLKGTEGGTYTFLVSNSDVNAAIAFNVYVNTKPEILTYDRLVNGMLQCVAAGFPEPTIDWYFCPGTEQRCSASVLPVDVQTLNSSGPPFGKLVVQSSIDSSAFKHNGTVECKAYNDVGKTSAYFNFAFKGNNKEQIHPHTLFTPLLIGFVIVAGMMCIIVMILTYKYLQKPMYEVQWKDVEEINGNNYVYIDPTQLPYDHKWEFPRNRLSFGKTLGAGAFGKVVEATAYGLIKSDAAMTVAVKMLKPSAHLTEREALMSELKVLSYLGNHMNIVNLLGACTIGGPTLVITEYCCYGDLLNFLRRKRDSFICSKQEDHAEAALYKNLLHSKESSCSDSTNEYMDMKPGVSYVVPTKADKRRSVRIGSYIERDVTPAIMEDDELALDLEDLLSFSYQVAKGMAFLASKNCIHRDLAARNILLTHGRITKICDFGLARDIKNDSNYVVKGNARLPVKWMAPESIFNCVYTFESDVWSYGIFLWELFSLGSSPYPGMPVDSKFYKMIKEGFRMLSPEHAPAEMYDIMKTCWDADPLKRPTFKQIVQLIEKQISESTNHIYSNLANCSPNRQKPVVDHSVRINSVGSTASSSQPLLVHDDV
CHEK2, sequence (O96017 whole entry): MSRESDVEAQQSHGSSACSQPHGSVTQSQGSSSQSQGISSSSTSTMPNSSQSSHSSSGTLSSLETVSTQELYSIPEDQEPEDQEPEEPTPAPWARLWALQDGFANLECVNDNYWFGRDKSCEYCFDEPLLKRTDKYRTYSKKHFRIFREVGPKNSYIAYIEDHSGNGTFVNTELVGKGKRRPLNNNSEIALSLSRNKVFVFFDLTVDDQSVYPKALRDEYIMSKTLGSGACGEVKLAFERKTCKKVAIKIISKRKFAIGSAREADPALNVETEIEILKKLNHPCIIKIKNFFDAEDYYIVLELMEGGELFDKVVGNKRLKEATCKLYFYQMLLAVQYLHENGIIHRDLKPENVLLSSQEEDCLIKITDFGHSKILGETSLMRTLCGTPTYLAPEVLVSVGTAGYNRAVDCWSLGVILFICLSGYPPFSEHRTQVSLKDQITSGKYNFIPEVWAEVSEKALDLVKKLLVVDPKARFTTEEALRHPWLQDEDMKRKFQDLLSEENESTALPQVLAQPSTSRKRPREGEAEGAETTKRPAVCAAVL
CSNK1E, sequence (P49674 whole entry): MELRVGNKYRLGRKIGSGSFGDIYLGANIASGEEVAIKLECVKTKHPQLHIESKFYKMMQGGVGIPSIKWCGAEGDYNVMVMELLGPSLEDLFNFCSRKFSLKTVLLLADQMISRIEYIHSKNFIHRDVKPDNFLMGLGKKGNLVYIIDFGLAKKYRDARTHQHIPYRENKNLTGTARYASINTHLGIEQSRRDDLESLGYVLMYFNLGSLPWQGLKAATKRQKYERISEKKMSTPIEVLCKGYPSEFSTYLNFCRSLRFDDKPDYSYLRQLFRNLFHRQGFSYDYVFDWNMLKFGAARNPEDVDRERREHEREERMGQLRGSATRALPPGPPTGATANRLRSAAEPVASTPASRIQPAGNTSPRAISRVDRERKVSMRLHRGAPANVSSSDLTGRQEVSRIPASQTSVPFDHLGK
CDK4-cyclinD3, sequence (P11802 whole entry): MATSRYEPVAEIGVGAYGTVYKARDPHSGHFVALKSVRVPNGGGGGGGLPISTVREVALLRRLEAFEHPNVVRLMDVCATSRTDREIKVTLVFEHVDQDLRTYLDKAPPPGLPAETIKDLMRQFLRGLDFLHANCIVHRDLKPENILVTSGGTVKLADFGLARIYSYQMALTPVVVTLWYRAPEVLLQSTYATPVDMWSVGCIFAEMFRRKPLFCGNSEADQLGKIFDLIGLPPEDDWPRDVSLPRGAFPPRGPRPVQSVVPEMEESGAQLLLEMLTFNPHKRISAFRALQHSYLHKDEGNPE
CDK4-cyclinD3, sequence (P30281 whole entry partner): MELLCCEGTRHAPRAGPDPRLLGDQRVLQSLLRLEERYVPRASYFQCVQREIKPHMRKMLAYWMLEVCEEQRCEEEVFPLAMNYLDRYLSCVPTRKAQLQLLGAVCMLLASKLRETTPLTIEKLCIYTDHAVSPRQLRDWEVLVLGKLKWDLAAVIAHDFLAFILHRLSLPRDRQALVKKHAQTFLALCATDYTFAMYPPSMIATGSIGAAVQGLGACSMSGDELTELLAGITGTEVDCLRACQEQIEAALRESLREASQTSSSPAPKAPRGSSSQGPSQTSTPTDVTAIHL
TNK1, sequence (Q13470 whole entry): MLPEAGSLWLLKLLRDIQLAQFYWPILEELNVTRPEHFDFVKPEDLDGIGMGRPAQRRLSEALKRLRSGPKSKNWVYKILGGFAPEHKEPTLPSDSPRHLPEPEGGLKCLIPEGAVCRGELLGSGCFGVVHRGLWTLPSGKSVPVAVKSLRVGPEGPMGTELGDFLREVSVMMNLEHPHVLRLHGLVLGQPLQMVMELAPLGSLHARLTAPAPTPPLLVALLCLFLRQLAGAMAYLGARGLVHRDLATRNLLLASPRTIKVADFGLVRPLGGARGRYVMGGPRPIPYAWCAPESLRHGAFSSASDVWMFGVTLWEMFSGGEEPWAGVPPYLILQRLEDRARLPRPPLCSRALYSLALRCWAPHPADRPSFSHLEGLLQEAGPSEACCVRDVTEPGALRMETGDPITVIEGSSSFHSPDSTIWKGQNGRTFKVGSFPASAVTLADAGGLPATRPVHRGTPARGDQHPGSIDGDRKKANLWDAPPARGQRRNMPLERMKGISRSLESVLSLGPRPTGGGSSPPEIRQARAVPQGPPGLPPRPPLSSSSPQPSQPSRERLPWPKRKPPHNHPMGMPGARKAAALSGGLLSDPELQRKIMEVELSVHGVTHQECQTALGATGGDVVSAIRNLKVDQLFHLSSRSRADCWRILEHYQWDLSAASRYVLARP

SMILES: Nc1ncc(-c2nc3ccccc3o2)c(-c2ccncc2)n1 [Comparative Compound 324, 5-(1,3-benzoxazol-2-yl)-4-(pyridine-4-yl)pyrimidin-2-amine]
- remaining binding at 10 µM (LIMK2): 100%
- remaining binding at 10 µM (MEK4): 70%
- remaining binding at 10 µM (CAMKK2): 97%
- remaining binding at 10 µM (TYRO3): 99%
- remaining binding at 10 µM (PAK2): 92%
- remaining binding at 10 µM (PIK4CB): 96%
- remaining binding at 10 µM (BRSK2): 100%
- remaining binding at 10 µM (PAK6): 100%
- remaining binding at 10 µM (TAK1): 81%
- remaining binding at 10 µM (CDK11): 100%
- remaining binding at 10 µM (EPHB3): 95%
- remaining binding at 10 µM (PAK4): 98%
- remaining binding at 10 µM (LATS2): 82%
- remaining binding at 10 µM (CHEK2): 100%
- remaining binding at 10 µM (PDGFRA): 86%
- remaining binding at 10 µM (SLK): 63%
- remaining binding at 10 µM (CSNK1D): 3.8%
- remaining binding at 10 µM (AMPK-alpha2): 100%
- remaining binding at 10 µM (KIT (V559D)): 69%
- remaining binding at 10 µM (EPHA6): 100%
- remaining binding at 10 µM (LRRK2 (G2019S)): 76%
- remaining binding at 10 µM (CDK4-cyclinD3): 100%
- remaining binding at 10 µM (NEK1): 100%
- remaining binding at 10 µM [1]: 100%
- remaining binding at 10 µM (TNK1): 97%
- remaining binding at 10 µM (DRAK1): 100%
- remaining binding at 10 µM (PYK2): 100%
- remaining binding at 10 µM (MARK2): 91%
- remaining binding at 10 µM (CAMKK1): 100%
- remaining binding at 10 µM (PIK3CA (H1047Y)): 72%
- remaining binding at 10 µM (TXK): 93%
- remaining binding at 10 µM (MELK): 80%
- remaining binding at 10 µM (CSNK1E): 1.4%
- remaining binding at 10 µM (RET (V804M)): 100%
- remaining binding at 10 µM (STK33): 77%
- remaining binding at 10 µM (PRKD3): 91%
- remaining binding at 10 µM (PIK3CG): 32%
- remaining binding at 10 µM (PRKR): 96%
- remaining binding at 10 µM (MAP3K2): 87%
- remaining binding at 10 µM (PRKCD): 86%
- remaining binding at 10 µM (IKK-alpha): 92%

SMILES: CNc1c(C(N)=O)c2ccccn2c1C(=O)c1ccc(F)cc1 [Compound A, 2-methyl-amino-3-[(4-fluorophenyl)carbonyl]indolizine-1-carboxamide]
- remaining binding at 10 µM (LIMK2): 100%
- remaining binding at 10 µM (MEK4): 43%
- remaining binding at 10 µM (CAMKK2): 82%
- remaining binding at 10 µM (TYRO3): 100%
- remaining binding at 10 µM (PAK2): 79%
- remaining binding at 10 µM (PIK4CB): 90%
- remaining binding at 10 µM (BRSK2): 94%
- remaining binding at 10 µM (PAK6): 86%
- remaining binding at 10 µM (TAK1): 56%
- remaining binding at 10 µM (CDK11): 95%
- remaining binding at 10 µM (EPHB3): 42%
- remaining binding at 10 µM (PAK4): 89%
- remaining binding at 10 µM (LATS2): 72%
- remaining binding at 10 µM (CHEK2): 100%
- remaining binding at 10 µM (PDGFRA): 89%
- remaining binding at 10 µM (SLK): 100%
- remaining binding at 10 µM (CSNK1D): 1.4%
- remaining binding at 10 µM (AMPK-alpha2): 99%
- remaining binding at 10 µM (KIT (V559D)): 19%
- remaining binding at 10 µM (EPHA6): 96%
- remaining binding at 10 µM (LRRK2 (G2019S)): 86%
- remaining binding at 10 µM (CDK4-cyclinD3): 96%
- remaining binding at 10 µM (NEK1): 95%
- remaining binding at 10 µM [1]: 43%
- remaining binding at 10 µM (TNK1): 99%
- remaining binding at 10 µM (DRAK1): 95%
- remaining binding at 10 µM (PYK2): 100%
- remaining binding at 10 µM (MARK2): 85%
- remaining binding at 10 µM (CAMKK1): 89%
- remaining binding at 10 µM (PIK3CA (H1047Y)): 80%
- remaining binding at 10 µM (TXK): 45%
- remaining binding at 10 µM (MELK): 71%
- remaining binding at 10 µM (CSNK1E): 0.1%
- remaining binding at 10 µM (RET (V804M)): 100%
- remaining binding at 10 µM (STK33): 72%
- remaining binding at 10 µM (PRKD3): 74%
- remaining binding at 10 µM (PIK3CG): 79%
- remaining binding at 10 µM (PRKR): 90%
- remaining binding at 10 µM (MAP3K2): 73%
- remaining binding at 10 µM (PRKCD): 93%
- remaining binding at 10 µM (IKK-alpha): 96%
